From patent US20090311217A1, “3-SUBSTITUTED-1H-INDOLE COMPOUNDS, THEIR USE AS MTOR KINASE AND PI3 KINASE INHIBITORS, AND THEIR SYNTHESES” (priority 2008, published 2009)
Read-outs that look alike come from different tables or passages of the source.

Tests used:
PI3K-gamma = PI3K-gamma (Homo sapiens, UniProt P48736); experiment: PI3K-gamma fluorescence polarization assay; type: biochemical
In short: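 Reactions in 5 mM HEPES pH 7, 2.5 mM MgCl2, 25 μM ATP with 2.5 μM diC8-PI(4,5)P2 and 5 ng enzyme, 1 h at 25° C, then EDTA quench. Product detected by FP using GST-GRP1 PH domain (100 nM) and BODIPY-TMR-IP4 tracer (5 nM); final DMSO 0.8%.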

PI3K-alpha = PI3K-alpha (Homo sapiens, UniProt P42336); experiment: PI3K-alpha fluorescence polarization assay; type: biochemical; settings: read-out: PI3Kα Avg. IC50
PI3K-alpha, sequence (P42336 whole entry, species assumed): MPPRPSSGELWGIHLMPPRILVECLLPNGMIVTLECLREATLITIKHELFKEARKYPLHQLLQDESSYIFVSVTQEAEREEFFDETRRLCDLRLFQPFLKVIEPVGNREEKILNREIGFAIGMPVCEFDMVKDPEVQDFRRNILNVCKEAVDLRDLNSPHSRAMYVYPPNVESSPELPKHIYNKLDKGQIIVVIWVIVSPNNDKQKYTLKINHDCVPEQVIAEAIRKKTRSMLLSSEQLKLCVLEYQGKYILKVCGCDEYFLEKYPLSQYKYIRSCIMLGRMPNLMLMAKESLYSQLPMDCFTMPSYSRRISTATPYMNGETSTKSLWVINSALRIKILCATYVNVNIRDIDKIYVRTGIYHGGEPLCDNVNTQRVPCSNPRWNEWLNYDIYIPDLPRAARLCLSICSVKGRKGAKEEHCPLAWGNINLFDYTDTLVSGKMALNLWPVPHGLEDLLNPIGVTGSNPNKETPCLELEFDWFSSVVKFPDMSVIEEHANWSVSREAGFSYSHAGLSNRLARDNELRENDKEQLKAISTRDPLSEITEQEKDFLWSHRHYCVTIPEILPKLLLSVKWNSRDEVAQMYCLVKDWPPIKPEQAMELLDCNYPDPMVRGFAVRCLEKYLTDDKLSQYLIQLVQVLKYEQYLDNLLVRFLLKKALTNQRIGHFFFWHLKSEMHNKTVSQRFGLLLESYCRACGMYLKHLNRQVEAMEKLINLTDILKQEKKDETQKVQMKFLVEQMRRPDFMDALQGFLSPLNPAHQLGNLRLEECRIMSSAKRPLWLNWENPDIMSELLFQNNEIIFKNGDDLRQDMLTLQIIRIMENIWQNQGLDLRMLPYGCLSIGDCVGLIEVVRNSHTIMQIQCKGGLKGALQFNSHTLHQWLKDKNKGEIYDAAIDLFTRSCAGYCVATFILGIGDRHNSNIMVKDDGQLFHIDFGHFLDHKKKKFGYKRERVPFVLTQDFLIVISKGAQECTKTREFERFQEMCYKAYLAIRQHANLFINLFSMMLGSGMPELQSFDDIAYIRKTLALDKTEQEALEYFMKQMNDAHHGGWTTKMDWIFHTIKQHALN
PI3K-alpha, sequence (P27986 whole entry partner, species assumed): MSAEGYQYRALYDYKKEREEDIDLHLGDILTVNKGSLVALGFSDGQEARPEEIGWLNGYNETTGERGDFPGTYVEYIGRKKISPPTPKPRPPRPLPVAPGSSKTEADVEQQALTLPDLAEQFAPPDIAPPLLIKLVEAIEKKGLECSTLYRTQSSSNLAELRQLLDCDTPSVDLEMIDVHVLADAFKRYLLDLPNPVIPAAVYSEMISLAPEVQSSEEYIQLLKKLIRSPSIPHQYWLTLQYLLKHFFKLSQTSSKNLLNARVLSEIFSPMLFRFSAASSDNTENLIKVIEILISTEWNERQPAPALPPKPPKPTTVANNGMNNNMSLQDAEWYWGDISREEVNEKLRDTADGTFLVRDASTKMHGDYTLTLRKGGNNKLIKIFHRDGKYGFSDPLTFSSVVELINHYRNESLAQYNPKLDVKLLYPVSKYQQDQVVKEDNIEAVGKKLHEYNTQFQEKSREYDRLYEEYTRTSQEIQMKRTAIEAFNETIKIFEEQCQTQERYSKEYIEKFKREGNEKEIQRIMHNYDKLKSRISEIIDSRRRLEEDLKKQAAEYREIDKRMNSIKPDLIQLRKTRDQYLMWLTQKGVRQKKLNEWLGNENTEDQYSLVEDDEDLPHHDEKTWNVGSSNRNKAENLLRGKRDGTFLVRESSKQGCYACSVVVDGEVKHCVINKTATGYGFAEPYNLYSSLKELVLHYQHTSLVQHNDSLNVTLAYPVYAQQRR

PI3K-gamma, sequence (P48736 whole entry, species assumed, the tested form may be a part): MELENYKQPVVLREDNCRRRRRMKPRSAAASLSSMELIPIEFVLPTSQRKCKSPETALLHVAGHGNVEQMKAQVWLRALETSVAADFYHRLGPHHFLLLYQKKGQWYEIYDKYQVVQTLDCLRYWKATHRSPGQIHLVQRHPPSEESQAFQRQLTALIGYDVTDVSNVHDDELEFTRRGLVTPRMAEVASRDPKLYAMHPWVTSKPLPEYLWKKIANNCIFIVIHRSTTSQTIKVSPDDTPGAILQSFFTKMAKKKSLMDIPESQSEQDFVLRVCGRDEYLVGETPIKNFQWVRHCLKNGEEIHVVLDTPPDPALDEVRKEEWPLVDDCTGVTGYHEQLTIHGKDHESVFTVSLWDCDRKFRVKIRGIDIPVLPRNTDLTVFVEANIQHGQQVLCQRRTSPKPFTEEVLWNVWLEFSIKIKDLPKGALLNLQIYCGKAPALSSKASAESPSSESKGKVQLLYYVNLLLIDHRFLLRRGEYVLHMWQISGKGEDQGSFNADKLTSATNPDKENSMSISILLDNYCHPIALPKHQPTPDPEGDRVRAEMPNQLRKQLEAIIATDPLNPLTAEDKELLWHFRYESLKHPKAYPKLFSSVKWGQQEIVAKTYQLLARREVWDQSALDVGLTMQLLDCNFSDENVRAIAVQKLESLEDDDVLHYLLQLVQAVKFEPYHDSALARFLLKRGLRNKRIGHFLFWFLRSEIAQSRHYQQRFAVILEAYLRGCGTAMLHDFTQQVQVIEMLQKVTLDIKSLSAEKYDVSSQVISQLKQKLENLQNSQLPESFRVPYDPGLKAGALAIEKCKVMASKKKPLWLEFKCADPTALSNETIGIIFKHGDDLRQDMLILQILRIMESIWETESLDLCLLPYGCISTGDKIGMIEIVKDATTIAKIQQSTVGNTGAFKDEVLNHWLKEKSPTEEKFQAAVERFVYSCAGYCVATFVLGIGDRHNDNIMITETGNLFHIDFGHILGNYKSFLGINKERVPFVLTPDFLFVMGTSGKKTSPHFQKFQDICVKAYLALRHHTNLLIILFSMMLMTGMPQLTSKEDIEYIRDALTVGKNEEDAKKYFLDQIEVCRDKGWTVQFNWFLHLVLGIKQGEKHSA

IC50 (PI3K-alpha) [nM]	IC50 (PI3K-gamma; PI3Kγ Avg. IC50) [nM]	Molecule	IC50 (PI3K-gamma; read-out: PI3Kγ Avg. IC50) [nM]
38	2180	CNC(=O)Nc1ccc2c(c1)C(=O)/C(=C/c1cn(CCCN3CCCCC3)c3ccc(OC)cc13)O2 [Compound 578, 1-[(2Z)-2-{[5-methoxy-1-(3-piperidin-1-ylpropyl)-1H-indol-3-yl]methylene}-3-oxo-2,3-dihydro-1-benzofuran-5-yl]-3-methylurea]	–
73.5	2200	CNC(=O)Nc1ccc2c(c1)C(=O)/C(=C/c1c[nH]c3c(/C=C/CN4CCN(C)CC4)cc(OC)cc13)O2 [Compound 594, 1-[(2Z)-2-({5-methoxy-7-[(1E)-3-(4-methylpiperazin-1-yl)prop-1-en-1-yl]-1Hindol-3-yl}methylene)-3-oxo-2,3-dihydro-1-benzofuran-5-yl]-3-methylurea]	–
30	128	CNC(=O)Nc1ccc2c(c1)C(=O)/C(=C/c1cn(CCCC#N)c3ccc(OC)cc13)O2 [Compound 579, 1-[(2Z)-2-{[1-(3-cyanopropyl)-5-methoxy-1H-indol-3-yl]methylene}-3-oxo-2,3-dihydro-1-benzofuran-5-yl]-3-methylurea]	–
97.5	2990	COc1ccc2c(c1)c(/C=C1\Oc3ccc(NC(=O)NCCN(C)C)cc3C1=O)cn2CCN1CCN(C)CC1 [Compound 574, 1-[2-(dimethylamino)ethyl]-3-[(2Z)-2-({5-methoxy-1-[2-(4-methylpiperazin-1-yl)ethyl]-1H-indol-3-yl}methylene)-3-oxo-2,3-dihydro-1-benzofuran-5-yl]urea]	–
137	1500	COc1ccc2c(c1)c(C=C1Oc3c(ccc(O)c3O)C1=O)c(C)n2CCCCCl [Example 122, 2-{[1-(4-chlorobutyl)-5-methoxy-2-methyl-1H-indol-3-yl]methylene}-6,7-dihydroxyl-1-benzofuran-3(2H)-one]	–
3.5	448	CNC(=O)Nc1ccc2c(c1)C(=O)/C(=C/c1c(C)n(CCCN3CCCC3)c3ccc(OC)cc13)O2 [Compound 597, 1-[(2Z)-2-{[5-methoxy-2-methyl-1-(3-pyrrolidin-1-ylpropyl)-1H-indol-3-yl]methylidene}-3-oxo-2,3-dihydro-1-benzofuran-5-yl]-3-methylurea]	–
235	2480	COc1ccc2c(c1)c(C=C1Oc3cccc(O)c3C1=O)c(C)n2CCCCN1CCOCC1 [Example 136, 4-hydroxy-2-{[5-methoxy-2-methyl-1-(4-morpholin-4-ylbutyl)-1H-indol-3-yl]methylene}-1-benzofuran-3(2H)-one]	–
478	2770	COc1ccc2c(c1)c(C=C1Oc3cccc(O)c3C1=O)c(C)n2CCCCN1CCN(CCO)CC1 [Example 137, 4-hydroxy-2-[(1-{4-[4-(2-hydroxyethyl)piperazin-1-yl]butyl}-5-methoxy-2-methyl-1H-indol-3-yl)methylene]-1-benzofuran-3(2H)-one]	–
3.5	830	CNC(=O)Nc1ccc2c(c1)C(=O)/C(=C/c1c(C)n(CCCN3CCCCC3)c3ccc(OC)cc13)O2 [Compound 588, 1-[(2Z)-2-{[5-methoxy-2-methyl-1-(3-piperidin-1-ylpropyl)-1H-indol-3-yl]methylene}-3-oxo-2,3-dihydro-1-benzofuran-5-yl]-3-methylurea]	–
10.5	> 10000	CNC(=O)Nc1ccc2c(c1)C(=O)/C(=C/c1c(C#N)[nH]c3ccc(OC)cc13)O2 [Compound 604, 1-{(2Z)-2-[(2-cyano-5-methoxy-1H-indol-3-yl)methylidene]-3-oxo-2,3-dihydro-1-benzofuran-5-yl}-3-methylurea]	–

More lines, now with the values behind:

Molecule	IC50 (PI3K-alpha) [nM]	IC50 (PI3K-gamma; PI3Kγ Avg. IC50) [nM]	IC50 (PI3K-gamma; read-out: PI3Kγ Avg. IC50) [nM]
6,7-dihydroxy-2-{[5-methoxy-2-methyl-1-(4-morpholin-4-ylbutyl)-1H-indol-3-yl]methylene}-1-benzofuran-3(2H)-one [Example 133]	230	–	954
COc1ccc2c(c1)c(/C=C1\Oc3ccc(NC(N)=O)cc3C1=O)cn2CCCN(C)C [Compound 537, 1-[(2Z)-2-({1-[3-(dimethylamino)propyl]-5-methoxy-1H-indol-3-yl}methylene)-3-oxo-2,3-dihydro-1-benzofuran-5-yl]urea]	421	> 10000	–
COc1ccc2c(c1)c(/C=C1\Oc3ccc(NC(=O)NCCCO)cc3C1=O)cn2CCCN(C)C [Compound 568, 1-[(2Z)-2-({1-[3-(dimethylamino)propyl]-5-methoxy-1H-indol-3-yl}methylene)-3-oxo-2,3-dihydro-1-benzofuran-5-yl]-3-(3-hydroxypropyl)urea]	477	3390	–
CNC(=O)Nc1ccc2c(c1)C(=O)/C(=C/c1c(C3CCCC3)n(CCN3CCN(C)CC3)c3ccc(OC)cc13)O2 [Compound 561, 1-[(2Z)-2-({2-cyclopentyl-5-methoxy-1-[2-(4-methylpiperazin-1-yl)ethyl]-1Hindol-3-yl}methylene)-3-oxo-2,3-dihydro-1-benzofuran-5-yl]-3-methylurea]	3.15	378	–
COc1ccc2[nH]cc(C=C3Oc4c(O)cccc4C3=O)c2c1 [Compound 482, 7-hydroxy-2-[(5-methoxy-1H-indol-3-yl)methylene]-1-benzofuran-3(2H)-one]	> 10000	> 10000	–
CNC(=O)Nc1ccc2c(c1)C(=O)/C(=C/c1cn(CCN3CCN(C)CC3)c3ccc(OC)cc13)O2 [Compound 553, 1-[(2Z)-2-({5-methoxy-1-[2-(4-methylpiperazin-1-yl)ethyl]-1H-indol-3-yl}methylene)-3-oxo-2,3-dihydro-1-benzofuran-5-yl]-3-methylurea]	31	4830	–
Cn1c(-c2ccccc2)c(/C=C2\Oc3cc(O)cc(O)c3C2=O)c2c([N+](=O)[O-])cccc21 [Compound 499, (2Z)-4,6-dihydroxy-2-[(1-methyl-4-nitro-2-phenyl-1H-indol-3-yl)methylene]-1-benzofuran-3(2H)-one]	342	3560	–
Cn1cc(/C=C2\Oc3ccc(NC(=O)Nc4cccnc4)cc3C2=O)c2c(-c3ccccc3)cccc21 [Compound 535, 1-{(2Z)-2-[(1-methyl-4-phenyl-1H-indol-3-yl)methylene]-3-oxo-2,3-dihydro-1-benzofuran-5-yl}-3-pyridin-3-ylurea]	> 10000	> 10000	–
CCc1c(/C=C2\Oc3cc(O)cc(O)c3C2=O)c2cc(OC)ccc2n1CCCC#N [Compound 493, 4-{3-[(Z)-(4,6-dihydroxy-3-oxo-1-benzofuran-2(3H)-ylidene)methyl]-2-ethyl-5-methoxy-1H-indol-1-yl}butanenitrile]	3	15.5	–
COc1cc(-c2ccncc2)c2[nH]cc(/C=C3\Oc4cc(O)ccc4C3=O)c2c1 [Compound 479, (2Z)-6-hydroxy-2-[(5-methoxy-7-pyridin-4-yl-1H-indol-3-yl)methylene]-1-benzofuran-3(2H)-one]	298	> 10000	–
COc1ccc2[nH]cc(/C=C3\Oc4ccc(NC(=O)NC(C)C)cc4C3=O)c2c1 [Compound 486, 1-isopropyl-3-{(2Z)-2-[(5-methoxy-1H-indol-3-yl)methylene]-3-oxo-2,3-dihydro-1-benzofuran-5-yl}urea]	1460	1610	–
CNC(=O)c1cc(O)cc2c1C(=O)/C(=C/c1c[nH]c3ccc(OC)cc13)O2 [Compound 513, (2Z)-6-hydroxy-2-[(5-methoxy-1H-indol-3-yl)methylene]-N-methyl-3-oxo-2,3-dihydro-1-benzofuran-4-carboxamide]	1540	> 10000	–
COc1ccc2[nH]cc(/C=C3\Oc4ccc(NC(=O)NC5CCCCC5)cc4C3=O)c2c1 [Compound 488, 1-cyclohexyl-3-{(2Z)-2-[(5-methoxy-1H-indol-3-yl)methylene]-3-oxo-2,3-dihydro-1-benzofuran-5-yl}urea]	> 10000	> 10000	–
COc1cc(-c2cncnc2)c2c(c1)c(/C=C1\Oc3cc(O)ccc3C1=O)cn2CCCC#N [Compound 501, 4-{3-[(Z)-(6-hydroxy-3-oxo-1-benzofuran-2(3H)-ylidene)methyl]-5-methoxy-7-pyrimidin-5-yl-1H-indol-1-yl}butanenitrile]	701	7000	–
COc1ccc2[nH]cc(/C=C3\Oc4ccc(C#N)cc4C3=O)c2c1 [Compound 523, (2Z)-2-[(5-methoxy-1H-indol-3-yl)methylene]-3-oxo-2,3-dihydro-1-benzofuran-5-carbonitrile]	> 10000	> 10000	–
COC(=O)Nc1ccc2c(c1)C(=O)/C(=C/c1cn(CCCN(C)C)c3ccc(OC)cc13)O2 [Compound 538, methyl [(2Z)-2-({1-[3-(dimethylamino)propyl]-5-methoxy-1H-indol-3-yl}methylene)-3-oxo-2,3-dihydro-1-benzofuran-5-yl]carbamate]	820	> 10000	–
Cc1cccc2c1c(/C=C1\Oc3cc(O)cc(O)c3C1=O)c(-c1ccccc1)n2C [Compound 476, (2Z)-2-[(1,4-dimethyl-2-phenyl-1H-indol-3-yl)methylene]-4,6-dihydroxy-1-benzofuran-3(2H)-one]	412	1640	–
COc1ccc2[nH]cc(/C=C3\Oc4cc(-c5nn[nH]n5)ccc4C3=O)c2c1 [Compound 509, (2Z)-2-[(5-methoxy-1H-indol-3-yl)methylene]-6-(2H-tetrazol-5-yl)-1-benzofuran-3(2H)-one]	484	2470	–
COc1ccc2[nH]cc(/C=C3\Oc4ccc(Br)cc4C3=O)c2c1 [Compound 522, (2Z)-5-bromo-2-[(5-methoxy-1H-indol-3-yl)methylene]-1-benzofuran-3(2H)-one]	> 10000	> 10000	–
COc1cc(-c2cccnc2)c2[nH]cc(/C=C3\Oc4cc(O)ccc4C3=O)c2c1 [Compound 480, (2Z)-6-hydroxy-2-[(5-methoxy-7-pyridin-3-yl-1H-indol-3-yl)methylene]-1-benzofuran-3(2H)-one]	81.5	3510	–
